Measured values as given in patent publication US20240252652A1, “PROTEINS HAVING UNNATURAL AMINO ACIDS AND METHODS OF USE” (The Regents of the University of California, priority 2021, published 2024).

Tested on: m^6A modified RNA
Assay: GRIP-seq (high-throughput sequencing)
Format: cell-based, human
Text: To detect endogenous m^6A sites in mammalian cells throughout the transcriptome, we developed GRIP-seq through combining GRIP for m^6A with high-throughput sequencing, enabling global identification of m^6A sites in vivo with single-nucleotide resolution (FIG. 12A). In brief. HEK293T cells expressing YTH-397SFY protein (FIG. 19A) were lysed and treated with RNase to partially digest RNA into short fragments. After GRIP for these cell lysates (FIG. 19A), the purified protein-RNA cross-links were treated with proteinase K to release the cross-linked RNA fragments, which were converted into a cDNA library through adapting the enhanced CLIP protocol and then subjected to high-throughput sequencing. All m^6A sites cross-linked by YTH-397SFY protein in vivo would be captured and identified by reverse transcription termination at the upstream cross-linked nucleotides. Van Nostrand et al. Nat. Methods 13:508-514 (2016)
We generated four pairs of GRIP-seq libraries. For each pair, we generated one library for the INPUT sample, which represents the RNA fragments from the whole cell lysate, and one library for the IP sample, which represents the RNA fragments cross-linked with the purified YTH proteins. […] For each library, around 10 to 35 million reads were obtained (data not shown). After removing adaptors, we first mapped the reads to the transcriptome. […]

With `COc1ccc(C[C@H](N)C(=O)O)cc1S(=O)(=O)F` [SFY, (S)-1-carboxy-2-(3-(fluorosulfonyl)-4-methoxyphenyl)ethan-1-aminium] the “RNA nucleotides cross-linked in vivo” value was “all four RNA nucleotides”.
